{
  "source": "patent US20230381196A1",
  "about": "“COMPOSITIONS COMPRISING BISFLUOROALKYL-1,4-BENZODIAZEPINONE COMPOUNDS FOR TREATING ADENOID CYSTIC CARCINOMA” (AYALA PHARMACEUTICALS INC., priority 2020, published 2023)",
  "key": {"[1]": {"assay": "Phase 2 trial: Compound (1) plasma concentration / PK", "format": "in vivo, human", "protocol": "FIGS. 5A-5B. Compound (1) plasma concentration over time since last dose^a The concentration of Compound (1) in plasma in subjects on days 0-7 after being administered 4 mg Compound (1) on week 1 (FIG. 5A) and on week 4 (FIG. 5B). Dots represent individual subject data; lines represent geometric means. Orange lines: Phase 2 data. Green lines: Phase 1 data.\nFIG. 6. Effect of CYP inhibitors and substrates on Compound (1) PK^b. Effect of concomitant administration of CYP inhibitors or substrates on the PK of Compound (1) in subjects administered 4 mg Compound (1) once per week. Box plots represent median, 25/75 percentile, and 2/98 percentile; groups with >1 subject represented are shown. 2C19; 2D6 (weak), 1A2, 3A4, 2D6\nStarting on Cycle 1, Day 1, eligible subjects enrolled in the study received Compound (1), 4 mg intravenously (IV) weekly (qwk), on Days 1, 8, 15, and 22 of each 28-day cycle until disease progression, unacceptable toxicity, or consent withdrawal. Paired tumor biopsies were collected at screening (fresh or archival within 5 years) and upon confirmation of disease progression (provided medically safe and not contraindicated). Samples were sent to a central vendor for NGS analysis. Formalin-fixed paraffin embedded (FFPE) slides were evaluated by IHC for NICDI stain."}, "ACC83 cells [2]": {"tested_on": "ACC83 cells", "assay": "Wound healing (migration) assay", "format": "cell-based, Human", "conditions": "10 nM for 14 days, vs untreated cells", "protocol": "(§1) FIG. 11A. Effect of Compound (1) monotherapy on cell migration in ACC83 cell line. ACC83 cells were treated with either 10 nM Compound (1) or DMSO (control) for 14 days. Cells were then plated in wells containing inserts and allowed to attach for 12 h. The inserts were removed, and the gap was photographed at 0 h and at 12 h (left panel).\n(§2) Methods: A wound healing assay was carried out to assess migration potential of ACC83 and ACC112 cells. Cells were cultured in triplicate in 6-well plates (1×10^6 cells per well) containing culture inserts (Ibidi). On reaching 90% confluence, the inserts were removed, and cells were cultured for 12 hr. Gap area in individual wells was determined using ImageJ. The gap area percentage was calculated as the gap area at 12 hr relative to the gap area at 0 hr. A Boyden chamber assay was carried out to assess the invasion potential of ACC83 and ACC112 cells. Cells were cultured (1×10^4 cells per well) in triplicate into the upper chamber of Matrigel-coated transwell chambers (8-μm pore size, Corning) in serum-free medium, while 10% FBS medium was added to the bottom chamber to stimulate invasion. After 24 h incubation, the cells in the upper chamber were carefully removed with cotton swab, and the cells that had invaded through Matrigel were stained with 1DiffQuick, photographed at 40× magnification and quantified across three random fields."}, "[3]": {"assay": "Tolerability of monotherapy and combination therapy in naive mice", "conditions": "Compound (1) 3.0 mg/kg PO qdx4", "procedure": "Naïve mice were randomly divided into 17 groups (n=5). Control group was administered vehicle once every day for four consecutive days (qdx4). […] Dosing was initiated on Day 0. Animal weight was measured every day for two weeks."}, "ACC112 cells": {"tested_on": "ACC112 cells", "assay": "Wound healing (migration) assay", "format": "cell-based, Human", "conditions": "10 nM for 14 days, vs untreated cells", "protocol": "as §1, with “11B.” for “11A.”, “ACC112” for “ACC83”\nas §2"}, "[4]": {"tested_on": "NOTCH signaling (NICD1, HES1, HESS, HEY1) in ACC112 cells", "assay": "NICD1 and NOTCH downstream targets by IHC and western blot", "format": "cell-based, Human", "conditions": "10 nM", "protocol": "(§3) FIG. 10B. Effect of Compound (1) monotherapy on NICD1 in ACC cell lines. NICD1 immunohistochemical staining of ACC83 (left) or ACC112 (right) cells treated with either 10 nM Compound (1) or DMSO (control) for 14 days.\n(§4) FIG. 10C. Effect of Compound (1) monotherapy on NOTCH downstream targets in ACC cell lines. Cell lysates were collected at day 14 from Compound (1)- or DMSO (control)-treated ACC83 and ACC112 cells and analyzed by western blot for the expression of NICD1, HES1, HESS and HEY1 proteins, with GAPDH used a loading control.\n(§5) Methods: The naturally immortalized sublingual gland derived Human ACC cell line ACC83 and the Human HPV-transformed submaxillary gland derived cell line ACC112 were treated with Compound (1) at 10 nM concentration or DMSO (control) for 14 days. ACC83 cells were cultured in RPMI 1640 medium supplemented with 10% FBS, 10,000 u/ml penicillin-streptomycin and 1 ml L-glutamine. ACC112 cell line was additionally supplemented with 20 ng/ml epidermal growth factor, 400 ng/ml hydrocortisone and 5 μg/ml insulin. Cell viability relative to day 0 was determined using an Alamar Blue assay on days 7, 11 and 14. Cell lines were stained with NICD1 (Cell Signaling, 4147S, 1:200), HES1 (Abcam, ab71559, 1:400), HEY1 (Millipore, AB5714, 1:200), and HESS (Novus Biologicals, NBP241305, 1:200) antibodies using iView DAB detection and the Ventana BenchMark XT staining system (Roche). Area and intensity of diaminobenzidine (DAB) signal was quantified using IHC Profiler color deconvolution plugin within ImageJ software."}, "[5]": {"tested_on": "NOTCH signaling (NICD1, HES1, HESS, HEY1) in ACC83 cells", "assay": "NICD1 and NOTCH downstream targets by IHC and western blot", "format": "cell-based, Human", "conditions": "10 nM", "protocol": "as §3, §4, §5"}, "ACC112 cell line": {"tested_on": "ACC112 cell line", "assay": "Alamar Blue cell viability assay", "format": "cell-based, Human", "conditions": "10 nM, 14 days, vs DMSO", "protocol": "(§6) FIG. 10A. Effect of Compound (1) monotherapy on cell viability in ACC cell lines. ACC83 and ACC112 cell lines were treated with 10 nM Compound (1) or DMSO (control) for 14 days, and cell viability relative to day 0 was determined using an Alamar Blue assay on days 7, 11 and 14. **p<0.01; ***p<0.001.\nas §5"}, "ACC83 cell line": {"tested_on": "ACC83 cell line", "assay": "Alamar Blue cell viability assay", "format": "cell-based, Human", "conditions": "10 nM, 14 days, vs DMSO", "protocol": "as §6, §5"}, "ACC83 cells [6]": {"tested_on": "ACC83 cells", "assay": "Boyden chamber invasion assay", "format": "cell-based, Human", "conditions": "10 nM for 14 days, 24 h transwell", "protocol": "FIG. 11C. Effect of Compound (1) monotherapy on cell invasion in ACC83 cell line. ACC83 cells were treated with either 10 nM Compound (1) or DMSO (control) for 14 days. Cells were then placed transwell chambers and after 24 h, the membranes were stained with crystal violet. Cells that had migrated through the membrane were photographed (left panel) and counted. The average number of ACC83 cells per field that migrated through the membrane are shown in a bar plot (right panel).\nas §2, with “Cells were cultured (1×10^4 cells per well) in triplicate into the upper chamber of Matrigel-coated transwell chambers (8-μm pore size, Corning) in serum-free medium, while 10% FBS medium was added to the bottom chamber to stimulate invasion.” left out"}},
  "data": [
    {"smiles": "CN1C(=O)[C@@H](NC(=O)[C@H](CCC(F)(F)F)[C@H](CCC(F)(F)F)C(N)=O)N=C(c2ccccc2)c2ccccc21", "note": "[Compound (1), (2R,3S)—N-((3S)-1-methyl-2-oxo-5-phenyl-2,3-dihydro-1H-1,4-benzodiazepin-3-yl)-2,3-bi s(3,3,3-trifluoropropyl)succinamide]", "values": [
      {"measurement": "PK of plasma concentration compared with Phase 1 study", "setting": "[1]; 4 mg dose, week 1 and week 4", "value": "equivalent to the PK from the Phase 1 study"},
      {"measurement": "effect of inhibitors or substrates of different CYPs on the PK", "setting": "[1]; 4 mg once per week, concomitant CYP inhibitors or substrates", "value": "no significant effect"},
      {"measurement": "cell migration (relative gap width at 12 h)", "setting": "ACC83 cells [2]", "value": "significantly inhibited the migration"},
      {"measurement": "tolerability", "setting": "[3]", "value": "good tolerability"},
      {"measurement": "cell migration (relative gap width at 12 h)", "setting": "ACC112 cells", "value": "significantly inhibited the migration"},
      {"measurement": "NICD1 (Western blotting and IHC)", "setting": "[4]; 14 days, vs DMSO", "value": "reduction in NICD1"},
      {"measurement": "expression levels of NOTCH downstream targets HES1, HESS and HEY1", "setting": "[4]; day 14, western blot", "value": "substantially downregulated expression levels"},
      {"measurement": "NICD1 (Western blotting and IHC)", "setting": "[5]; 14 days, vs DMSO", "value": "reduction in NICD1"},
      {"measurement": "expression levels of NOTCH downstream targets HES1, HESS and HEY1", "setting": "[5]; day 14, western blot", "value": "substantially downregulated expression levels"},
      {"measurement": "cell growth (cell viability relative to day 0)", "setting": "ACC112 cell line", "value": "potently inhibited cell growth"},
      {"measurement": "cell growth (cell viability relative to day 0)", "setting": "ACC83 cell line", "value": "potently inhibited cell growth"},
      {"measurement": "cell invasion", "setting": "ACC83 cells [6]", "value": "substantially decreased the invasion"}
    ]}
  ]
}
